# Assay results as given in ChEMBL document CHEMBL1201862, “PubChem BioAssay data set” (2004).
# Calls of active or inactive are those of the source.
# Experiments:
# [1] = tested on: Streptococcus sp. 'group A'; assay: Streptococcus pyogenes SK(-)GAS viability under kanamycin – luminescence, BacTiterGlo, confirmation, counter-screen for streptokinase expression inhibitor project, dose response (AID 1900); assay type: functional, organism-based
# Streptococcus = assay: GAS UMAA2166 growth inhibition – luminescence, BacTiterGlo, counter-screen for streptokinase expression inhibitor project, dose response (AID 1915); assay type: functional, organism-based;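 further: potency for reduction of bacterial viability or growth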
# Albumin = Albumin (Bos taurus, UniProt P02769); assay: Counterscreen for inhibitors of T-cell receptor (TCR)-CD3 interaction: Fluorescence-based biochemical high throughput dose response assay to identify inhibitors of T-cell receptor (TCR)-CD3 interaction using a TAMRA-labeled BSA probe.; assay type: functional
# [2] = activation of miR-122 Renilla sensor silencing – cell-based, Huh7 psiCHECK-miR122, Renilla luciferase, cherry-picked, dose response (AID 651956); assay type: functional;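 further: huh7 hepatoma cells stably carrying a psiCHECK-2 miR-122 sensor plasmid; renilla luciferase signal reporting endogenous miR-122 activity after 48 h compound exposure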
# [3] = general mammalian cell viability loss – inhibitor set, cherry-pick, set 2, cytotoxicity control for miR-122 modulator project, dose response (AID 720697); assay type: functional, cell-based
# [4] = general mammalian cell viability loss – activator set, cherry-pick, cytotoxicity control for miR-122 modulator project, dose response (AID 720690); assay type: functional, cell-based;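 further: HEK293T human cells scored for general mammalian cytotoxicity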
# HeLa = assay: viability loss in HeLa cells – cell-based, ATP luminescence, cherry-pick samples, cytotoxicity control, dose response (AID 687004); assay type: functional; conditions: Homo sapiens
# [5] = biological target: 1-phosphatidylinositol 4,5-bisphosphate phosphodiesterase gamma-1 (Homo sapiens, UniProt P19174); assay: Counterscreen for inhibitors of phospholipase C isozymes (PLC-B3): Fluorescence-based biochemical high throughput dose response assay to identify inhibitors of phospholipase C isozymes (PLC-gamma1).
# [6] = biological target: 1-phosphatidylinositol 4,5-bisphosphate phosphodiesterase beta-3 (Homo sapiens, UniProt Q01970); assay: Fluorescence-based biochemical high throughput dose response assay to identify inhibitors of phospholipase C isozymes (PLC-B3).
# cells = assay type: functional, cell-based
# [7] = biological target: Nuclear receptor subfamily 0 group B member 1 (Homo sapiens, UniProt P51843); assay type: functional, cell-based;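 further: HEK293T cells transfected with SF-1 and DAX-1 plus StAR promoter luciferase reporter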
# [8] = Late stage assay provider results from the probe development effort to identify selective inhibitors of heat shock protein 90 (HSP90): Absorbance-based cell proliferation assay in SKBR3 cells.; assay type: functional; conditions: SK-BR-3
# [9] = Late stage assay provider results from the probe development effort to identify selective inhibitors of heat shock protein 90 (HSP90): Absorbance-based cell proliferation assay in MCF7 cells.; assay type: functional
# [10] = MITF Orthogonal Assay: SK-MEL-5 CTG Assay Measured in Cell-Based System Using Plate Reader - 2084-02_Inhibitor_Dose_DryPowder_Activity_Set7.; assay type: functional
# [11] = MITF: Counter assay: A375 proliferation Measured in Cell-Based System Using Plate Reader - 2084-03_Inhibitor_Dose_DryPowder_Activity_Set8.; assay type: functional; conditions: A-375
# [12] = inhibitors of TRPM1-promoter reporter in SK-MEL-5 – cell-based, luciferase, dry powder, set 8, MITF inhibitor project, dose response (AID 624430); assay type: functional
# [13] = biological target: Disintegrin and metalloproteinase domain-containing protein 17 (Homo sapiens, UniProt P78536); assay: exosite inhibitors of ADAM17, dose response, biochemical (AID 743260)
# [14] = inhibition of ADAM10 peptide cleavage – biochemical, FRET peptide substrate, recombinant human ADAM10, selectivity assay for ADAM17 exosite inhibitor project, dose response (AID 743259);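 further: ADAM10 enzyme cleaving a FRET peptide substrate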
# Plasmodium falciparum = assay: antimalarial activity against intraerythrocytic 3D7 parasites – 3D7 strain, red blood cells, SYBR Green, cherry-picked, dose response (AID 652047); assay type: functional
# Chain of Albumin (P02769 whole entry): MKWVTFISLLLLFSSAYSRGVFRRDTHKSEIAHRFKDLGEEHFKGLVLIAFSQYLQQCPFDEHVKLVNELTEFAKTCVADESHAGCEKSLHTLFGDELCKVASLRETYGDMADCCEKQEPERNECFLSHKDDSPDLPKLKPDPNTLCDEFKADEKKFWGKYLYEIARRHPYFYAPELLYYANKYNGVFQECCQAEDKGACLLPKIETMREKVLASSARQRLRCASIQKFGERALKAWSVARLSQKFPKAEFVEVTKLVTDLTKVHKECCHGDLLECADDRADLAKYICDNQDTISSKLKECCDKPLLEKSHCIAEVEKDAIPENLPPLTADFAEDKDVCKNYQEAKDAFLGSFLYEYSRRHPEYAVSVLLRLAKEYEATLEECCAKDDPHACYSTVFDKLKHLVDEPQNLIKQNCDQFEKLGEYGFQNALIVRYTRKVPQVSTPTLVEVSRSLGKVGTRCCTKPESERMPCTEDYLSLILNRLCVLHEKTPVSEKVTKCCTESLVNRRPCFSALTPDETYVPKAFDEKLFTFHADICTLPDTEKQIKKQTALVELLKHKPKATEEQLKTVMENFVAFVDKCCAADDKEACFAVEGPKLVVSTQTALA
# Chain of Disintegrin and metalloproteinase domain-containing protein 17 (P78536 whole entry, the tested form may be a part): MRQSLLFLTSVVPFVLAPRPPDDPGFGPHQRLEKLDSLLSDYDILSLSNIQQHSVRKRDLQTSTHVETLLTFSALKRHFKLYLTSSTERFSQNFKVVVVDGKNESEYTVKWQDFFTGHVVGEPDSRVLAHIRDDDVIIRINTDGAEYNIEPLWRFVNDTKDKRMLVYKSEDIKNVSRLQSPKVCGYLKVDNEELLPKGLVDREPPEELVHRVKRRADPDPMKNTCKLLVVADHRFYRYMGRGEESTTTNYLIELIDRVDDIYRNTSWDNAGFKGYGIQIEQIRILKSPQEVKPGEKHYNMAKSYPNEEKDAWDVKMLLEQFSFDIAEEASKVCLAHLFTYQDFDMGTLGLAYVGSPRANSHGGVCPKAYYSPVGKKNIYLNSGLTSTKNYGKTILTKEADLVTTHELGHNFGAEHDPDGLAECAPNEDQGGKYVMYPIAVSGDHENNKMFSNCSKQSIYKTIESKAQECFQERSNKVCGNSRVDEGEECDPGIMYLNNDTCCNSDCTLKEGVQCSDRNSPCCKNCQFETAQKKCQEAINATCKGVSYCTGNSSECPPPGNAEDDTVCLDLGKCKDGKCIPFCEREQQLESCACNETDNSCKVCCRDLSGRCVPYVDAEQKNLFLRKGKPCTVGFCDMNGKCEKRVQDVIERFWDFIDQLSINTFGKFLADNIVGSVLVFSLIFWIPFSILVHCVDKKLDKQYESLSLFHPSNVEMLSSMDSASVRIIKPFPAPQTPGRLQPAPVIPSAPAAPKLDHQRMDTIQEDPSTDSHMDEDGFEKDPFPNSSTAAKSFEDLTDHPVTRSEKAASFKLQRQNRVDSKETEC
# Chain of Nuclear receptor subfamily 0 group B member 1 (P51843 whole entry): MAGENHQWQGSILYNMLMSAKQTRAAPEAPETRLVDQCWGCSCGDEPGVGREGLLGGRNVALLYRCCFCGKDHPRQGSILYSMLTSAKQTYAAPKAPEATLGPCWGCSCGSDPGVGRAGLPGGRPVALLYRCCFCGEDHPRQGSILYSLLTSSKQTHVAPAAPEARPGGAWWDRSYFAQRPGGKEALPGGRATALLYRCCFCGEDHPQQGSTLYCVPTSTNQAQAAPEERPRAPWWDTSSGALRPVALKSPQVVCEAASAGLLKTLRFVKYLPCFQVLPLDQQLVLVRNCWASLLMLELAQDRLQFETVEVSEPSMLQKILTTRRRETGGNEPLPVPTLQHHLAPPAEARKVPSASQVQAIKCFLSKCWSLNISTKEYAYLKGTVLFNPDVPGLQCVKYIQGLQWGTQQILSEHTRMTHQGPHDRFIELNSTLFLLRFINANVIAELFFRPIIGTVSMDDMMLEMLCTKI
# Chain of 1-phosphatidylinositol 4,5-bisphosphate phosphodiesterase beta-3 (Q01970 whole entry): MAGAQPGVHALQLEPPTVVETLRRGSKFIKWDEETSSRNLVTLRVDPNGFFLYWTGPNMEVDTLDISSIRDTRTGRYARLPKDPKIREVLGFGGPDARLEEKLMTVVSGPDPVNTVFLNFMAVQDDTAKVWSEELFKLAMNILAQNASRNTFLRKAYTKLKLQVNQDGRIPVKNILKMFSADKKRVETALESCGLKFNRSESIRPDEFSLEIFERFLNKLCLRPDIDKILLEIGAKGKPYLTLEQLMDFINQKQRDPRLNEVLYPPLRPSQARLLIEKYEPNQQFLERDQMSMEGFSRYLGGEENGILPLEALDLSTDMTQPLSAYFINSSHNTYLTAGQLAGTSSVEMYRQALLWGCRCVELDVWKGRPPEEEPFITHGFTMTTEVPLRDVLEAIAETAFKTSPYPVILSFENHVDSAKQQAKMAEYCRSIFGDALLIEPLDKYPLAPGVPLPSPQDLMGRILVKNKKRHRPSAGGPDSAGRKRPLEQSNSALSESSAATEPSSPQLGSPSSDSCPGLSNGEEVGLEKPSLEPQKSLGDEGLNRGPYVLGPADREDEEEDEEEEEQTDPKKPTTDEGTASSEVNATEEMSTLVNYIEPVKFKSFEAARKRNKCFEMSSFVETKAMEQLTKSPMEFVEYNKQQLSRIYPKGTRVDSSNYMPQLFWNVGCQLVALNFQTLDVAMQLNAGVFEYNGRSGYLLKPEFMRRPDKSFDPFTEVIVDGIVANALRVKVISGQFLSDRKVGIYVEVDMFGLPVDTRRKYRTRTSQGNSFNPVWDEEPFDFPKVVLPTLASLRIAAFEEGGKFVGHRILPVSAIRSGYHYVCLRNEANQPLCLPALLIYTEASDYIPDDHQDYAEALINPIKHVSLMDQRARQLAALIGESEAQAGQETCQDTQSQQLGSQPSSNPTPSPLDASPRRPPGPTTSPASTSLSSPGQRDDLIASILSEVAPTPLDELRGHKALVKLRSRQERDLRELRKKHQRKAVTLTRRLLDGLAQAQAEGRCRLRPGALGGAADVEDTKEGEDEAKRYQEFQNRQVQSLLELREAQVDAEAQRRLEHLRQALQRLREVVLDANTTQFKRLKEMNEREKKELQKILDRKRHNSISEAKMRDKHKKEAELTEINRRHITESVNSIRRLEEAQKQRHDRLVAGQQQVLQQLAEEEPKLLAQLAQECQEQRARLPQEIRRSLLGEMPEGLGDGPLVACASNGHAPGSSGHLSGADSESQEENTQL
# Chain of 1-phosphatidylinositol 4,5-bisphosphate phosphodiesterase gamma-1 (P19174 whole entry): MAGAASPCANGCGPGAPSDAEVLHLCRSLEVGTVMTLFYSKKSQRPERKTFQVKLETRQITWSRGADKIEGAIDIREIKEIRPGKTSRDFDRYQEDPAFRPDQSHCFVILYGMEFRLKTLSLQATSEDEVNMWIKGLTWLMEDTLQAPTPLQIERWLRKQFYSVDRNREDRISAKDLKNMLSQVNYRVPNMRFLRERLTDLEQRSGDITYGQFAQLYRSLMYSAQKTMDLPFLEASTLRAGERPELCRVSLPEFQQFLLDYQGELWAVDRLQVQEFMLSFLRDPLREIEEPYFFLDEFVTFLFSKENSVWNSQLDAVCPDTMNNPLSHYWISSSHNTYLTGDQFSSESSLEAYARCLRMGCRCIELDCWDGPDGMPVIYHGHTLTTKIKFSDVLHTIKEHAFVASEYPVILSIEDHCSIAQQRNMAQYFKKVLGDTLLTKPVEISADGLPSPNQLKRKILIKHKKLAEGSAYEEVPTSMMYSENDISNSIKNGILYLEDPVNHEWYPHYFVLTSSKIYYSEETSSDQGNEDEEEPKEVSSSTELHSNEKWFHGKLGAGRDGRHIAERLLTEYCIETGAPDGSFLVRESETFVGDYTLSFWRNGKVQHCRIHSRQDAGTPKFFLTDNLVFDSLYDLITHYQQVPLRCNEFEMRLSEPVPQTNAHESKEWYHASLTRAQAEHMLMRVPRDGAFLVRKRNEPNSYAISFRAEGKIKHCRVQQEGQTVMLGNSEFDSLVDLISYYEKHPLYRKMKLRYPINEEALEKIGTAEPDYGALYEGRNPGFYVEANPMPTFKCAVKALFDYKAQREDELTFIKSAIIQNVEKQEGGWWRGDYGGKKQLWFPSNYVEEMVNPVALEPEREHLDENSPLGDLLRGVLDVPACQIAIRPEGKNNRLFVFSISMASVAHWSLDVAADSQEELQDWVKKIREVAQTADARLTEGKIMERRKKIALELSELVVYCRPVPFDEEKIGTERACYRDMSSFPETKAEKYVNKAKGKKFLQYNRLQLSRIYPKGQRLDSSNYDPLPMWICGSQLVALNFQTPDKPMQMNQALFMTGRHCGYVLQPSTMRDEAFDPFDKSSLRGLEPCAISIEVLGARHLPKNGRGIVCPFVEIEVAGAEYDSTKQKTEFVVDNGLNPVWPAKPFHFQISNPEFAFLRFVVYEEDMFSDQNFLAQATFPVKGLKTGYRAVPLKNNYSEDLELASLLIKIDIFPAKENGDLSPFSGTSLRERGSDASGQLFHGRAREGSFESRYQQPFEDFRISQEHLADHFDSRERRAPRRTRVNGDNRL
compound,measurement,setting,value
C/C(=N\NC(=O)c1ccc(-c2ccccc2)cc1)C1C(=O)c2ccccc2C1=O,EC50,[1],0.557 µM (active)
same,EC50,Streptococcus,4.32 µM (active)
same,IC50,Albumin,> 94.1 µM (inactive)
C[C@@H]1CCCCO[C@@H](CN(C)CC2CCCCC2)[C@@H](C)CN([C@@H](C)CO)C(=O)c2cc(NC(=O)Nc3cccc4ccccc34)ccc2O1,AC50,[2],10.4 µM (active)
same,AC50,[3],8.05 µM (active)
same,AC50,[4],14.6 µM (active)
C/C=C/c1ccc2n(c1=O)C[C@H]1[C@H](CO)[C@@H](C(=O)N3CCc4ccccc4C3)N(C(=O)C3CC3)[C@@H]21.C/C=C\c1ccc2n(c1=O)C[C@H]1[C@H](CO)[C@@H](C(=O)N3CCc4ccccc4C3)N(C(=O)C3CC3)[C@@H]21,AC50,HeLa,> 52 µM (inactive)
Nc1ncnc2c1ncn2[C@@H]1O[C@H](COP(=O)(O)CP(=O)(O)O)[C@@H](O)[C@H]1O [PHOSPHOMETHYLPHOSPHONIC ACID ADENOSYL ESTER],IC50,[5],2.2 µM (active)
same,IC50,[6],> 122 µM (inactive)
Cc1ccn2c(Cc3ccccc3)c(-c3ccc(Br)cc3)nc2c1,IC50,cells,> 67.6 µM (inactive)
same,IC50,[7],> 67.6 µM (inactive)
O=C1OC(=O)/C(=C\Nc2ccccc2F)C=C1Br,IC50,[8],13.3 µM (inactive)
same,IC50,[9],13.6 µM (inactive)
CCN1CCN(C2=C(Nc3ccc(Br)cc3)C(=O)c3ccccc3C2=O)CC1,AC50,[10],8.61 µM (active)
same,AC50,[11],29.3 µM (active)
same,AC50,[12],10.7 µM (active)
COc1ccc(NC(=O)Nc2ccc3c(c2)C(=O)N([C@@H](C)CO)C[C@@H](C)[C@@H](CN(C)S(=O)(=O)c2cccs2)O3)cc1,IC50,[13],> 69.5 µM (inactive)
same,IC50,[14],> 7.72 µM (active)
Nc1nc(-c2ccccc2)c(-c2ccc([N+](=O)[O-])cc2)s1,AbsAC35,Plasmodium falciparum,103.54 µM
